According to ChEMBL document CHEMBL1201862, “PubChem BioAssay data set” (2004):
Activity calls are given as the source filed them.

Assays:
Assay type in all cases: functional
[1] = target: T1, Hexokinase-1 (Homo sapiens, UniProt P19367); assay: SAR analysis of small molecule inhibitors of hexokinase domain containing I (HKDC1) in the hexokinase 1 selectivity assay. [Related pubchem assays (depositor defined):AID493160, AID493190]
T1 sequence (P19367 whole entry): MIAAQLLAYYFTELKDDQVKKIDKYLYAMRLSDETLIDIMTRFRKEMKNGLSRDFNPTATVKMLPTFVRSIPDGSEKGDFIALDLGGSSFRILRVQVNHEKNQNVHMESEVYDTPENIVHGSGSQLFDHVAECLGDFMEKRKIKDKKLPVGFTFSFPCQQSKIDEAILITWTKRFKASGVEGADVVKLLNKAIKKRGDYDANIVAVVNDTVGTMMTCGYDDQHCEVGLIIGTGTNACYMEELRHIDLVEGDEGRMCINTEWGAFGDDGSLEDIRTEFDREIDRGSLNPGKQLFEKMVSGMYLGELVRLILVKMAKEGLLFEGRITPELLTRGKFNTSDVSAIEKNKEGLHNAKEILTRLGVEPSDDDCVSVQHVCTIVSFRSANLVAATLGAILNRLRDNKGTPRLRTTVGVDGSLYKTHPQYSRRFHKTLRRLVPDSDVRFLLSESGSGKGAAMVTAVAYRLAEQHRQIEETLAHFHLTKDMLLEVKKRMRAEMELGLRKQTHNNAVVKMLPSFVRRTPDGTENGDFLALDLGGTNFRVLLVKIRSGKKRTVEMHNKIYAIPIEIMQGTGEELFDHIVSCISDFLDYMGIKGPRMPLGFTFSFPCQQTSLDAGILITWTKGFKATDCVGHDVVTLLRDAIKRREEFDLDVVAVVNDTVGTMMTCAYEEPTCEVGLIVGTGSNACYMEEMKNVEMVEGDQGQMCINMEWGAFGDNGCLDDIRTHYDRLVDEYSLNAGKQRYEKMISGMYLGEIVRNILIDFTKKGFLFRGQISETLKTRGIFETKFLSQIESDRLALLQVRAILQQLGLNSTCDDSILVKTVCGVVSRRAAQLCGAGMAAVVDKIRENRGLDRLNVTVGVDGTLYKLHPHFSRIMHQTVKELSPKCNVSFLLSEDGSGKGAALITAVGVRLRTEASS

[2] = target: T2, Hexokinase HKDC1 (Homo sapiens, UniProt Q2TB90); assay: SAR analysis of small molecule inhibitors of hexokinase domain containing I (HKDC1). [Related pubchem assays (depositor defined):AID493160, AID493190]
T2 sequence (Q2TB90 whole entry): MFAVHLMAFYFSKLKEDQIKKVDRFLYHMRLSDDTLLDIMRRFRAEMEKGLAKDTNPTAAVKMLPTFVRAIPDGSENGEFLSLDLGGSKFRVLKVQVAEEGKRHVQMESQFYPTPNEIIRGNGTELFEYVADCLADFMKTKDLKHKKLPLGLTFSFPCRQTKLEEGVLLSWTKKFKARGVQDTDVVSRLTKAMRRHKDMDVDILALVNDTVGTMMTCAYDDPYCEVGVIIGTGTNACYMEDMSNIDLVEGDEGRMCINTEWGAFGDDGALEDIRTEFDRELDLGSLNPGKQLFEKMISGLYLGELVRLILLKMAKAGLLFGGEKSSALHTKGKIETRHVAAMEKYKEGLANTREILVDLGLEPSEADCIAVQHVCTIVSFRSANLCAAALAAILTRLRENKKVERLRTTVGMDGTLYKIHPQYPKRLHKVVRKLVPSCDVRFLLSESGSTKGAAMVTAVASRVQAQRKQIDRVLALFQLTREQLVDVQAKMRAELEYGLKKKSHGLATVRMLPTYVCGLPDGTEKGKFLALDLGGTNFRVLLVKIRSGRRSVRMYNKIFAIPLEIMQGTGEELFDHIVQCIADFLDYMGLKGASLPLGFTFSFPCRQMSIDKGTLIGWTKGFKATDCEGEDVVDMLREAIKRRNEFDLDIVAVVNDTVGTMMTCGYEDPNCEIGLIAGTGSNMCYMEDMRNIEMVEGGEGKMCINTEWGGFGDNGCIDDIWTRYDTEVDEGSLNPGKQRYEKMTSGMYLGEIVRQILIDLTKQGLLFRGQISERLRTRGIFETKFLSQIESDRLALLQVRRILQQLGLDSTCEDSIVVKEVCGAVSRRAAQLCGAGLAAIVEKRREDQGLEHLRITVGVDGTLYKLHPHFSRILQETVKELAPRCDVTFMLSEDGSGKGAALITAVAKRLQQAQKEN

[3] = target: E3 ubiquitin-protein ligase Mdm2 (Homo sapiens, UniProt Q00987); assay: enhancers of MDM2-luciferase reporter signal, concentration-effect titration, project on inhibitors of MDM2 ubiquitin ligase, cellular assay, luminescent readout, 384-well plate format (AID 1394);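 note: MDM2 E3 inhibitors raise luminescence so EC50 is for signal enhancement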
Sequence of E3 ubiquitin-protein ligase Mdm2 (Q00987 whole entry): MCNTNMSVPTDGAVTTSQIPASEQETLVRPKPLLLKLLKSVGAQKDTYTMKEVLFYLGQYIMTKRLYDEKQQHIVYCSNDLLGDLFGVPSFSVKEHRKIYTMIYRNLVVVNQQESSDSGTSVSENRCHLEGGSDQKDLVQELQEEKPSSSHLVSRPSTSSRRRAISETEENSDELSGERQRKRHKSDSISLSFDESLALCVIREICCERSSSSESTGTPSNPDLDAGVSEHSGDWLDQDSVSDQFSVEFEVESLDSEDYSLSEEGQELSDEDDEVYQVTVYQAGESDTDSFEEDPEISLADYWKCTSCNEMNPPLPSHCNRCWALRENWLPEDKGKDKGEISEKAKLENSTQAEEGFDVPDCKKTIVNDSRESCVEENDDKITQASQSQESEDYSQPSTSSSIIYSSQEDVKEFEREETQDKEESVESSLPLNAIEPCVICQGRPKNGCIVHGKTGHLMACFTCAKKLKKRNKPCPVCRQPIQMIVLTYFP

[4] = target: Induced myeloid leukemia cell differentiation protein Mcl-1 (Homo sapiens, UniProt Q07820)
Sequence of Induced myeloid leukemia cell differentiation protein Mcl-1 (Q07820 whole entry): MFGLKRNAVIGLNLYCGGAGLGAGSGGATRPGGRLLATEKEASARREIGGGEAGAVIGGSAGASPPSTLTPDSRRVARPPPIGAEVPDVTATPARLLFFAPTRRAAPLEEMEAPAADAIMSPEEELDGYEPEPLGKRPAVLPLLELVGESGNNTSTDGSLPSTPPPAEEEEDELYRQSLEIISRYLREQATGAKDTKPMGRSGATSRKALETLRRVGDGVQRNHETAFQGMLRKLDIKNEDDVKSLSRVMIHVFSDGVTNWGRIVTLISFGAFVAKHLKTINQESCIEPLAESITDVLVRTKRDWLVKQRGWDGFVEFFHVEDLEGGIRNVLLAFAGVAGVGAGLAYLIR

[5] = test system: Vero; assay: Vero cell cytotoxicity, cytotoxicity control for flavivirus capping enzyme inhibitors (AID 588742); settings: Chlorocebus sabaeus
[6] = target: Beta-arrestin-1 (Homo sapiens, UniProt P49407); assay: inhibitors of arrestin peptide binding to AP2, dose response, biochemical, cherry pick 1, beta2-adaptin appendage, flow cytometry (AID 588783)
Sequence of Beta-arrestin-1 (P49407 whole entry): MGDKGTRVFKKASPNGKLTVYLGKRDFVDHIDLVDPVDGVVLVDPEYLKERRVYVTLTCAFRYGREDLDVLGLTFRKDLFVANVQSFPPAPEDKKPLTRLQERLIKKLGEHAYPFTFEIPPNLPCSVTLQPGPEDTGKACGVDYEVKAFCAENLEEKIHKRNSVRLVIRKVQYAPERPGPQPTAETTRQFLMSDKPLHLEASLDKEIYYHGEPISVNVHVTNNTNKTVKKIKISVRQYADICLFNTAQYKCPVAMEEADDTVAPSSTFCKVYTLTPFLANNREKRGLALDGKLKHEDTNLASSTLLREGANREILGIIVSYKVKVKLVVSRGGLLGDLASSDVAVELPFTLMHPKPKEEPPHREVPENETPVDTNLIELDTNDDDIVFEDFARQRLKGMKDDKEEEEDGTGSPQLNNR

[7] = target: Genome polyprotein (dengue virus type 2, UniProt P29990); assay: Dengue-2 NS5 methyltransferase inhibitors, primary screen, biochemical, confirmation dose response (AID 588689)
Sequence of Genome polyprotein (P29990 2492-3391 limits assumed): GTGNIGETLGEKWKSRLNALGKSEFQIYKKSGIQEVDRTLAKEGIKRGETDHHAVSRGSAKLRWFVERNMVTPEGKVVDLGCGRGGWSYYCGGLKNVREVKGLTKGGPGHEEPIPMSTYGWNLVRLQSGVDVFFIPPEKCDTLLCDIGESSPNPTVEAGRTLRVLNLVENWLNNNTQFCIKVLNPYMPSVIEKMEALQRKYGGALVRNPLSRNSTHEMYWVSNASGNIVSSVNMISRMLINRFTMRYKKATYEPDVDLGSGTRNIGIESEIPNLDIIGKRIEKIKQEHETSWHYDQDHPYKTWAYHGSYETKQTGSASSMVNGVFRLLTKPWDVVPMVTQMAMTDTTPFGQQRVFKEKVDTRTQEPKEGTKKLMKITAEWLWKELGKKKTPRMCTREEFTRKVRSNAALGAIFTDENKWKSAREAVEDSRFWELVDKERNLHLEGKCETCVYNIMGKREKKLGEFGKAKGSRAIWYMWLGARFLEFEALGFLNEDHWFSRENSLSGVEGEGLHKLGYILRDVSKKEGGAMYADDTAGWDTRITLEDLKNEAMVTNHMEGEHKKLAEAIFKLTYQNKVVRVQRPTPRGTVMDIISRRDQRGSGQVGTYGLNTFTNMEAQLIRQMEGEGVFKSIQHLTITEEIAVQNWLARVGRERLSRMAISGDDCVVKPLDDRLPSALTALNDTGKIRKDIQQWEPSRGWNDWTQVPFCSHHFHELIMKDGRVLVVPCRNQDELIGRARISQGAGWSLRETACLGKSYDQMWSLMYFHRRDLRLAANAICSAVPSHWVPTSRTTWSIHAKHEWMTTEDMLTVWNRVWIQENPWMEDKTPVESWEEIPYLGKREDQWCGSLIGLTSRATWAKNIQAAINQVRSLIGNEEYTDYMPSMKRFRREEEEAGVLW

[8] = HeLa cell cytotoxicity, dose response, cytotoxicity control for MgcRacGAP inhibitor project (AID 624300)
[9] = THP-1 cell cytotoxicity, dose response, cytotoxicity control for Vif-APOBEC3G degradation inhibitor project, THP-1 cells (AID 1117359); settings: Human immunodeficiency virus 1, THP-1

Structure (SMILES)	IC50 [1]	IC50 [2]	EC50 [3]	IC50 [4]	CC50 [5]	IC50 [6]	IC50 [7]	CC50 [8]	CC50 [9]
O=c1c2ccccc2nc(/C=C/c2ccc3c(c2)OCO3)n1Cc1ccccc1	> 80 µM (inactive)	> 80 µM (inactive)							
Cc1cccc2c1c1ccc3c(c1n2C)C(=O)C=CC3=O			1.03 µM (active)	3.22 µM (active)	34.7 µM (active)	7.34 µM (active)	33.5 µM (active)	100 µM (active)	14.1 µM (active)
